Among the data in patent US20090137549A1, “Novel compounds useful for the treatment of degenerative & inflamatory diseases” (priority 2006, published 2009) are IC50 values, retold here.

Each structure is given as a SMILES string.

The assay deals with PDE1A (Homo sapiens, UniProt P54750). The assay is described as follows: PDE1A dose response, Cyclic Nucleotide Phosphodiesterase Assay Kit from Biomol (colorimetric). The format is biochemical. Conditions: purified PDE1A enzyme, 100 μM cAMP. The source says:
For the dose response and further screening, we used the Cyclic Nucleotide
Phosphodiesterase Assay Kit from Biomol, a colorimetric, non-radioactive assay. The basis for the assay is the cleavage of cAMP by PDE1A. The 5′AMP is further cleaved into the nucleoside and phosphate by the enzyme 5′-nucleotidase (catnr KI-307). The phosphate released due to enzymatic cleavage is quantified using BIOMOL GREEN™ reagent (catnr AK-111) in a modified Malachite Green assay^1,2. A PDE1A inhibitor will result in a decrease of the signal.
For the enzymatic reaction a mix of 25 μL with purified PDE1A enzyme, 100 μM cAMP, 5′Nucleotidase and the compound is made in a clear 384-plate. The reaction buffer is Tris 20 mM pH 7.4, 4 μg/mL calmodulin, 3 mM MgCl2, 1.5 mM CaCl2, 0.2 mg/mL BSA and 0.001% Brij-35. After an incubation of 45 minutes at 37° C., the reaction is stopped by the addition of 50 μL BIOMOL GREEN™ reagent. After 30 minutes incubation at room temperature, the readout is performed on the Envision (absorption at 615 nm).
All compounds are tested in duplicate starting from […] followed by a 1/3 serial dilution, 8 points (20 μM-6.67 μM-2.22 μM-740 nM-247 nM-82 nM-27 nM-9 nM) in a final concentration of 1% DMSO. As the positive dose response control compound Vardenafil is used. For the calculation of z′ and PIN values 10 μM Vardenafil is used as positive control (100% inhibition) and 1% DMSO as negative control (0% inhibition).
The following compounds have been or can be prepared according to the synthetic methods described above. For the purpose of Table 7 below, PDE1A activity of each compound, which can be determined using the assay methods described herein, is expressed as follows: […]
On to `COc1ccc(CNC(=O)N2CC(c3nc4c(c(C)nn4C4CCCCC4)c(=O)[nH]3)C2)cc1` [Example 28, 3-(1-cyclohexyl-3-methyl-4-oxo-4,5-dihydro-1H-pyrazolo[3,4-d]pyrimidin-6-yl)-N-(4-methoxybenzyl)azetidine-1-carboxamide], for which the IC50 (as a rule, the point on the concentration scale where inhibition reaches its midpoint) lay within 1 to 100 nM.

Turning to `CN(C)c1cccc(NC(=O)N2CC(c3nc4c(cnn4C4CCCCC4)c(=O)[nH]3)C2)c1` [Example 7, 3-(1-cyclohexyl-4-oxo-4,5-dihydro-1H-pyrazolo[3,4-d]pyrimidin-6-yl)-N-(3-(dimethylamino)phenyl)azetidine-1-carboxamide], the IC50 was 1 to 100 nM.

On to `Cc1nn(C2CCCCC2)c2nc(C3CN(C(=O)NCc4ccc(F)cc4)C3)[nH]c(=O)c12` [Example 27, 3-(1-cyclohexyl-3-methyl-4-oxo-4,5-dihydro-1H-pyrazolo[3,4-d]pyrimidin-6-yl)-N-(4-fluorobenzyl)azetidine-1-carboxamide], for which the IC50 was in the range of 1 to 100 nM.

The compound `CC(C)c1ccc(NC(=O)N2CC(c3nc4c(cnn4C4CCCCC4)c(=O)[nH]3)C2)cc1` [Example 18, 3-(1-cyclohexyl-4-oxo-4,5-dihydro-1H-pyrazolo[3,4-d]pyrimidin-6-yl)-N-(4-isopropylphenyl)azetidine-1-carboxamide] came in with an IC50 of 1 to 100 nM.

As to `CC(C)(C)n1ncc2c(=O)[nH]c(C3CN(c4nc5ccccc5[nH]4)C3)nc21` [Example 128, 6-(1-(1H-benzo[d]imidazol-2-yl)azetidin-3-yl)-1-tert-butyl-1H-pyrazolo[3,4-d]pyrimidin-4(5H)-one], the IC50 fell in the range of 1 to 100 nM.

The compound `N#Cc1ccc(NC(=O)N2CC(c3nc4c(cnn4C4CCCCC4)c(=O)[nH]3)C2)cc1` [Example 33, N-(4-cyanophenyl)-3-(1-cyclohexyl-4-oxo-4,5-dihydro-1H-pyrazolo[3,4-d]pyrimidin-6-yl)azetidine-1-carboxamide] gave an IC50 of 1 to 100 nM.

Regarding `Cc1nn(C(C)(C)C)c2nc(C3CN(c4nnnn4-c4ccccc4)C3)[nH]c(=O)c12` [Example 139, 1-tert-butyl-3-methyl-6-(1-(1-phenyl-1H-tetrazol-5-yl)azetidin-3-yl)-1H-pyrazolo[3,4-d]pyrimidin-4(5H)-one], the IC50 fell in the range of 101 to 500 nM.

Regarding `Cc1nn(C2CCCCC2)c2nc(C3CCCN(C(=O)c4ccsc4)C3)[nH]c(=O)c12` (centres unmarked) [Example 97, 1-cyclohexyl-3-methyl-6-(1-(thiophene-3-carbonyl)piperidin-3-yl)-1H-pyrazolo[3,4-d]pyrimidin-4(5H)-one], the IC50 was 1000 to 1500 nM.

`Cc1nn(C2CCCCC2)c2nc(C3CN(C(=O)Cc4ccccc4)C3)[nH]c(=O)c12` [Example 85, 1-cyclohexyl-3-methyl-6-(1-(2-phenylacetoyl)azetidin-3-yl)-1H-pyrazolo[3,4-d]pyrimidin-4(5H)-one]: the IC50 fell in the range of 501 to 1000 nM.

`O=C(Nc1ccccc1)N1CC(c2nc3c(cnn3C3CCCCC3)c(=O)[nH]2)C1` [Example 11, 3-(1-cyclohexyl-4-oxo-4,5-dihydro-1H-pyrazolo[3,4-d]pyrimidin-6-yl)-N-phenylazetidine-1-carboxamide]: the IC50 was in the range of 1 to 100 nM.

`CC(C)(C)n1ncc2c(=O)[nH]c(C3CN(CC(=O)Nc4ccccc4)C3)nc21` [Example 173, 2-(3-(1-tert-Butyl-4-oxo-4,5-dihydro-1H-pyrazolo[3,4-d]pyrimidin-6-yl)azetidin-1-yl)-N-phenylacetamide] registered a half-maximal inhibitory concentration (IC50) of 101 to 500 nM.

Compound `O=C(NCCc1c[nH]cn1)N1CC(c2nc3c(cnn3C3CCCCC3)c(=O)[nH]2)C1` [Example 62, N-(2-(1H-imidazol-4-yl)ethyl)-3-(1-cyclohexyl-4-oxo-4,5-dihydro-1H-pyrazolo[3,4-d]pyrimidin-6-yl)azetidine-1-carboxamide] gave a half-maximal inhibitory concentration (IC50) of 101 to 500 nM.

`COc1ccc(C(=O)N2CCCC(c3nc4c(c(C)nn4C4CCCCC4)c(=O)[nH]3)C2)cc1` (centres unmarked) [Example 77, 1-cyclohexyl-6-(1-(4-methoxybenzoyl)piperidin-3-yl)-3-methyl-1H-pyrazolo[3,4-d]pyrimidin-4(5H)-one] registered a concentration for half-maximal inhibition (IC50) of 101 to 500 nM.

`O=C(NC1CCOCC1)N1CC(c2nc3c(cnn3C3CCCCC3)c(=O)[nH]2)C1` [Example 47, 3-(1-cyclohexyl-4-oxo-4,5-dihydro-1H-pyrazolo[3,4-d]pyrimidin-6-yl)-N-(tetrahydro-2H-pyran-4-yl)azetidine-1-carboxamide]: the 50% inhibitory concentration (IC50) lay within 101 to 500 nM.

Compound `Cc1nn(C2CCC2)c2nc(C3CCCN(C(=O)c4ccc(C#N)cc4)C3)[nH]c(=O)c12` (centres unmarked) [Example 102, 4-(3-(1-cyclobutyl-3-methyl-4-oxo-4,5-dihydro-1H-pyrazolo[3,4-d]pyrimidin-6-yl)piperidine-1-carbonyl)benzonitrile] had an IC50 of 1000 to 1500 nM.

Consider `COc1ccc(S(=O)(=O)N2CCCC(c3nc4c(c(C)nn4C4CCC4)c(=O)[nH]3)C2)cc1` (centres unmarked) [Example 70, 1-cyclobutyl-6-(1-(4-methoxyphenylsulfonyl)piperidin-3-yl)-3-methyl-1H-pyrazolo[3,4-d]pyrimidin-4(5H)-one], for which the half-maximal inhibitory concentration (IC50) is 101 to 500 nM.

In turn, `CCCn1nc(C)c2c(=O)[nH]c(C3CCCN(S(=O)(=O)c4ccc(OC)cc4)C3)nc21` (centres unmarked) [Example 111, 6-(1-(4-methoxyphenylsulfonyl)piperidin-3-yl)-3-methyl-1-propyl-1H-pyrazolo[3,4-d]pyrimidin-4(5H)-one] yielded a half-inhibitory concentration (IC50) of 1000 to 1500 nM.

The compound `CC(C)(C)n1ncc2c(=O)[nH]c(C3CN(C(=O)Nc4ccc(F)cc4)C3)nc21` [Example 16, 3-(1-tert-butyl-4-oxo-4,5-dihydro-1H-pyrazolo[3,4-d]pyrimidin-6-yl)-N-(4-fluorophenyl)azetidine-1-carboxamide] came in with a half-maximal inhibitory concentration (IC50) of 1 to 100 nM.

The compound `CC(C)(C)n1ncc2c(=O)[nH]c(C3CN(c4nc5cc(C(F)(F)F)ccc5[nH]4)C3)nc21` [Example 127, 1-tert-butyl-6-(1-(5-(trifluoromethyl)-1H-benzo[d]imidazol-2-yl)azetidin-3-yl)-1H-pyrazolo[3,4-d]pyrimidin-4(5H)-one] gave a half-inhibitory concentration (IC50) of 1 to 100 nM.

`O=C(N1CCOCC1)N1CC(c2nc3c(cnn3C3CCCCC3)c(=O)[nH]2)C1` [Example 94, 1-cyclohexyl-6-(1-(morpholine-4-carbonyl)azetidin-3-yl)-1H-pyrazolo[3,4-d]pyrimidin-4(5H)-one] came in with an IC50 of 501 to 1000 nM.

Compound `O=C(NCc1ccccc1)N1CC(c2nc3c(cnn3C3CCCCC3)c(=O)[nH]2)C1` [Example 31, N-benzyl-3-(1-cyclohexyl-4-oxo-4,5-dihydro-1H-pyrazolo[3,4-d]pyrimidin-6-yl)azetidine-1-carboxamide] gave a half-maximal inhibitory concentration (IC50) of 1 to 100 nM.

As to `CC(C)N1CCN(c2ccc(OC(=O)N3CC(c4nc5c(cnn5C(C)(C)C)c(=O)[nH]4)C3)cc2)CC1` [Example 116, 4-(4-Isopropylpiperazin-1-yl)phenyl 3-(1-tert-butyl-4-oxo-4,5-dihydro-1H-pyrazolo [3,4-d]pyrimidin-6-yl)azetidine-1-carboxylate], the half-inhibitory concentration (IC50) lay in the range of 1 to 100 nM.

Turning to `CC(C)(C)n1ncc2c(=O)[nH]c(C3CN(c4ccc(CN5CCOCC5)cc4)C3)nc21` [Example 164, 1-tert-Butyl-6-[1-(4-morpholin-4-ylmethyl-phenyl)-azetidin-3-yl]-1,5-dihydro-pyrazolo[3,4-d]pyrimidin-4-one], the IC50 lay within 1 to 100 nM.

For the compound `COc1ccccc1C(=O)N1CCCC(c2nc3c(cnn3-c3ccccc3)c(=O)[nH]2)C1` (centres unmarked) [Example 65, 6-(1-(2-methoxybenzoyl)piperidin-3-yl)-1-phenyl-1H-pyrazolo[3,4-d]pyrimidin-4(5H)-one], the half-inhibitory concentration (IC50) was in the range of 101 to 500 nM.

`CC(C)(C)n1ncc2c(=O)[nH]c(C3CN(/C(=N\C#N)Nc4ccc(F)cc4)C3)nc21` [Example 179, 3-(1-tert-Butyl-4-oxo-4,5-dihydro-1H-pyrazolo[3,4-d]pyrimidin-6-yl)-N′-cyano-N-(4-fluorophenyl)azetidine-1-carboximidamide]: the 50% inhibitory concentration (IC50) fell in the range of 1 to 100 nM.

The compound `Cc1ccccc1C(=O)N1CCCC(c2nc3c(c(C)nn3C3CCCCC3)c(=O)[nH]2)C1` (centres unmarked) [Example 87, 1-cyclohexyl-3-methyl-6-(1-(2-methylbenzoyl)piperidin-3-yl)-1H-pyrazolo[3,4-d]pyrimidin-4(5H)-one] displayed an IC50 of 501 to 1000 nM.

In turn, `Cc1nn(-c2ccccc2)c2nc(C3CCCN(C(=O)c4ccc(C#N)cc4)C3)[nH]c(=O)c12` (centres unmarked) [Example 109, 4-(3-(3-methyl-4-oxo-1-phenyl-4,5-dihydro-1H-pyrazolo[3,4-d]pyrimidin-6-yl)piperidine-1-carbonyl)benzonitrile] gave an IC50 of 1000 to 1500 nM.

Turning to `Cc1nn(C(C)(C)C)c2nc(C3CN(C(=O)NCc4ccc(F)cc4)C3)[nH]c(=O)c12` [Example 17, 3-(1-tert-butyl-3-methyl-4-oxo-4,5-dihydro-1H-pyrazolo[3,4-d]pyrimidin-6-yl)-N-(4-fluorobenzyl)azetidine-1-carboxamide], the IC50 fell in the range of 1 to 100 nM.

Consider `COc1ccc(N2CC(c3nc4c(cnn4C4CCCCC4)c(=O)[nH]3)C2)cc1` [Example 165, 1-cyclohexyl-6-(1-(4-methoxyphenyl)azetidin-3-yl)-1H-pyrazolo[3,4-d]pyrimidin-4(5H)-one], for which the IC50 lay in the range of 101 to 500 nM.
